Assays:
Assay in all cases: radiometric filter-binding kinase assay, Kinase HotSpot
Details in all cases: compound 0.5 µM; ATP 10 µM
ERBB4 (human) = ERBB4 (human) (UniProt Q15303)
MAPK14 (human) = MAPK14 (human) (UniProt Q16539)
PRKCH (human) = PRKCH (human) (UniProt P24723)
PBK (human) = PBK (human) (UniProt Q96KB5)
LRRK2 (human) = LRRK2 (human) (UniProt Q5S007)
DMPK (human) = DMPK (human) (UniProt Q09013)
CSNK1G2 (human) = CSNK1G2 (human) (UniProt P78368)
PRKD2 (human) = PRKD2 (human) (UniProt Q9BZL6)
CLK3 (human) = CLK3 (human) (UniProt P49761)
CDK6 CCND1 (human) = CDK6 CCND1 (human) (UniProt Q00534+P24385)
PLK2 (human) = PLK2 (human) (UniProt Q9NYY3)
PIM2 (human) = PIM2 (human) (UniProt Q9P1W9)
CDK2 CCNA2 (human) = CDK2 CCNA2 (human) (UniProt P24941+P20248)
RPS6KA6 KD1 KD2 (human) = RPS6KA6 KD1 KD2 (human) (UniProt Q9UK32)
PAK3 (human) = PAK3 (human) (UniProt O75914)
DYRK3 (human) = DYRK3 (human) (UniProt O43781)
ROCK1 (human) = ROCK1 (human) (UniProt Q13464)
ACVR1B (human) = ACVR1B (human) (UniProt P36896)
STK25 (human) = STK25 (human) (UniProt O00506)
CAMK1 (human) = CAMK1 (human) (UniProt Q14012)
PRKCB1 (human) = PRKCB1 (human) (UniProt P05771)
IRAK1 (human) = IRAK1 (human) (UniProt P51617)
RET (human) = RET (human) (UniProt P07949)
GSK3B (human) = GSK3B (human) (UniProt P49841)
MST1R (human) = MST1R (human) (UniProt Q04912)
STK11 (human) = STK11 (human) (UniProt Q15831)
DSTYK (human) = DSTYK (human) (UniProt Q6XUX3)
FYN (human) = FYN (human) (UniProt P06241)
CDC42BPA (human) = CDC42BPA (human) (UniProt Q5VT25)
PIM1 (human) = PIM1 (human) (UniProt P11309)
ADRBK1 (human) = ADRBK1 (human) (UniProt P25098)
BRSK1 (human) = BRSK1 (human) (UniProt Q8TDC3)
KIT (human) = KIT (human) (UniProt P10721)
MAP3K3 (human) = MAP3K3 (human) (UniProt Q99759)
TGFBR1 (human) = TGFBR1 (human) (UniProt P36897)
PRKCZ (human) = PRKCZ (human) (UniProt Q05513)
NEK2 (human) = NEK2 (human) (UniProt P51955)
NLK (human) = NLK (human) (UniProt Q9UBE8)
NEK1 (human) = NEK1 (human) (UniProt Q96PY6)
STK33 (human) = STK33 (human) (UniProt Q9BYT3)
FGFR2 (human) = FGFR2 (human) (UniProt P21802)
SGK3 (human) = SGK3 (human) (UniProt Q96BR1)

Chain of PIM2 (human) (Q9P1W9 whole entry, looked up): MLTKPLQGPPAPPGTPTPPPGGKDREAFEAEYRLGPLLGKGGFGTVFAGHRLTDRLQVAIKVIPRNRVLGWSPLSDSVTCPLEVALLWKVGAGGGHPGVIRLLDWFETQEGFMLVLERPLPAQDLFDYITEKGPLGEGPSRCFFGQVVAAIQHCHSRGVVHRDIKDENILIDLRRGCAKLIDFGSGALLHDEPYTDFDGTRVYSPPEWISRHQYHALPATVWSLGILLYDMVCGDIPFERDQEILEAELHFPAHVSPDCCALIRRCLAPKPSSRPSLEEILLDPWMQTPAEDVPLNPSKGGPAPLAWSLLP
Chain of MAPK14 (human) (Q16539 whole entry, looked up): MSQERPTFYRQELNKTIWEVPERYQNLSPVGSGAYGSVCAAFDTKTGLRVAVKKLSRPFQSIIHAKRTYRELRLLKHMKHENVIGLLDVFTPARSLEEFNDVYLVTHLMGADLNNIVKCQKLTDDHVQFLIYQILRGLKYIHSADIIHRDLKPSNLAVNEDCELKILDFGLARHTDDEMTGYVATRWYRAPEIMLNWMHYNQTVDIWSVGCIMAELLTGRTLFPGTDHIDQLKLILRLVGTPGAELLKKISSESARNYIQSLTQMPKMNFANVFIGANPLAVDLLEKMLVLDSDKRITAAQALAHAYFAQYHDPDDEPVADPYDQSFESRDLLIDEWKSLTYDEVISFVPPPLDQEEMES
Chain of DMPK (human) (Q09013 whole entry, looked up): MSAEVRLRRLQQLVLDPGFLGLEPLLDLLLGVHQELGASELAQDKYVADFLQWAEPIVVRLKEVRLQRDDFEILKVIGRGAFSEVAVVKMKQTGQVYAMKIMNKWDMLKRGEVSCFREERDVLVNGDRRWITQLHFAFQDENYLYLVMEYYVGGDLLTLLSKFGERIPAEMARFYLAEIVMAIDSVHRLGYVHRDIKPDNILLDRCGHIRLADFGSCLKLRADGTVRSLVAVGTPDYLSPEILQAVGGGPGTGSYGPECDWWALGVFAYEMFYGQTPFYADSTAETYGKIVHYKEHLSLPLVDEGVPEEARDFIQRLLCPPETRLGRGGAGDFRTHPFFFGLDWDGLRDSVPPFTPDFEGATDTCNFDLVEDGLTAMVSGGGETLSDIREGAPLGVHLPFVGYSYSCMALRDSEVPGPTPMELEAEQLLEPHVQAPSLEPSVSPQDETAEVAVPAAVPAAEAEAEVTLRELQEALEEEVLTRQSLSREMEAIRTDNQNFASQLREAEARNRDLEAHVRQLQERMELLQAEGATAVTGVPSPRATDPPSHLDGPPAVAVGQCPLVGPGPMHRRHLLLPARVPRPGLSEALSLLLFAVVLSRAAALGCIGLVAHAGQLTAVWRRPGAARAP
Chain of LRRK2 (human) (Q5S007 whole entry, looked up): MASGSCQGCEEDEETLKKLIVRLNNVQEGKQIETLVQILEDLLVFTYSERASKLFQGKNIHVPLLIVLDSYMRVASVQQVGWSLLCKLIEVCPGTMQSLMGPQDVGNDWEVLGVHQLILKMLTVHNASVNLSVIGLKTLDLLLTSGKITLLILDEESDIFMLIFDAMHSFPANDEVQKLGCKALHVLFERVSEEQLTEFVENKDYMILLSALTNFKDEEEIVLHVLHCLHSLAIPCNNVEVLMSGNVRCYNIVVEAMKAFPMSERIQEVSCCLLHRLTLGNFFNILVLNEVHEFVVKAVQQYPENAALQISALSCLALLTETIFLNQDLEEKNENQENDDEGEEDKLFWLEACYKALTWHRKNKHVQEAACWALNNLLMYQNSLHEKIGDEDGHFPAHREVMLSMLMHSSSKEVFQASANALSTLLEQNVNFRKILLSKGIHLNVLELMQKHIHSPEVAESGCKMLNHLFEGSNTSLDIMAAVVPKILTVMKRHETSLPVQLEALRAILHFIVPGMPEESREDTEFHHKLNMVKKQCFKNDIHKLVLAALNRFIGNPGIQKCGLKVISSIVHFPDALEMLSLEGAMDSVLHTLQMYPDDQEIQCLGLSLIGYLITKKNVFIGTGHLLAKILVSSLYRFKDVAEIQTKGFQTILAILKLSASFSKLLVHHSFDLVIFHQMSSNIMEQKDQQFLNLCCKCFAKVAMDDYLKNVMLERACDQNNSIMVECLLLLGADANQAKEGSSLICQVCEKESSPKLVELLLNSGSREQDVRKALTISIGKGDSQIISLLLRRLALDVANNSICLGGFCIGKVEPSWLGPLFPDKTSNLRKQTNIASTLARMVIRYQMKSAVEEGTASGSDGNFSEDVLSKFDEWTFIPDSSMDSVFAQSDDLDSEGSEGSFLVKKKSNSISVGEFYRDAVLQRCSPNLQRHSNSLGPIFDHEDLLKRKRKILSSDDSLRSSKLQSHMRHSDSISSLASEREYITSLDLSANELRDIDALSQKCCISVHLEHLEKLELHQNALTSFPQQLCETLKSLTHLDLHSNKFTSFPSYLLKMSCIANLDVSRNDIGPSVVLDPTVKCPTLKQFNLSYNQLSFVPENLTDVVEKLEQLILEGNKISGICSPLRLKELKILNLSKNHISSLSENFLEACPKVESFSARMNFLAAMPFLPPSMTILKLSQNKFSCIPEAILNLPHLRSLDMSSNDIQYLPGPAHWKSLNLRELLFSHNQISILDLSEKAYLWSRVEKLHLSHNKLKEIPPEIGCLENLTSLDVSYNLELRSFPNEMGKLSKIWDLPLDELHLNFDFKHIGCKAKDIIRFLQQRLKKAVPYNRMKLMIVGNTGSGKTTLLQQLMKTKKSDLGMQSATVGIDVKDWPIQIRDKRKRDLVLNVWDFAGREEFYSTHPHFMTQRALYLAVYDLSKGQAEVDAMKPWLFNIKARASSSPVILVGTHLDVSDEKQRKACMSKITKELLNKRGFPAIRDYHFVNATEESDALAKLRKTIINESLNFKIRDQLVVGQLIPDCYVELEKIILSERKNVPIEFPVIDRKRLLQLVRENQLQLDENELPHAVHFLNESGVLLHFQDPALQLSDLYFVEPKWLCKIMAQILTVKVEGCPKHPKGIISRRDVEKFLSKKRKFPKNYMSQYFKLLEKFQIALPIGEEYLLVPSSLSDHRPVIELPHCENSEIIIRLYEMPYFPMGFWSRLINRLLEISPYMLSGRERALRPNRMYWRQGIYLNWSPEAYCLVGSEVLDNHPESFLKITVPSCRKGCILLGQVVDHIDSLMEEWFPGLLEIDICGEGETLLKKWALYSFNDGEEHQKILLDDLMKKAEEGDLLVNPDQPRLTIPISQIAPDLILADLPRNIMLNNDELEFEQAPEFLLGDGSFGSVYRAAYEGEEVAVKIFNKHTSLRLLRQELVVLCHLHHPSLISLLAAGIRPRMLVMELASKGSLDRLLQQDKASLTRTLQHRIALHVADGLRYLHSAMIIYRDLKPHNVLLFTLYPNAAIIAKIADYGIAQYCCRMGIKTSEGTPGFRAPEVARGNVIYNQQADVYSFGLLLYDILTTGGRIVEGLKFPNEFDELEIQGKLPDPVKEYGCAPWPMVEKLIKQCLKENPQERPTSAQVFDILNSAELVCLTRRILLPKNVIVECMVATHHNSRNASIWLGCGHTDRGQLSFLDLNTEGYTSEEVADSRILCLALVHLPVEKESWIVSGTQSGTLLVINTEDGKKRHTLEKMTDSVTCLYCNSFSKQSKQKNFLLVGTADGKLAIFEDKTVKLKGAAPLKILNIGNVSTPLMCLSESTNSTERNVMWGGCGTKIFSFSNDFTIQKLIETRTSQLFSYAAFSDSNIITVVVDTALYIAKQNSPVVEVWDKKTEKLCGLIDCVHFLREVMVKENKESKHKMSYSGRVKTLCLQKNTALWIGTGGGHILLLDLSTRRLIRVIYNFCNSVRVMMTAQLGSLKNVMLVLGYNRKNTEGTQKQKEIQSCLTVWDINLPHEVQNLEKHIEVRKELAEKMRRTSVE
Chain of CDK2 CCNA2 (human) (P20248 whole entry, looked up, other chains not shown): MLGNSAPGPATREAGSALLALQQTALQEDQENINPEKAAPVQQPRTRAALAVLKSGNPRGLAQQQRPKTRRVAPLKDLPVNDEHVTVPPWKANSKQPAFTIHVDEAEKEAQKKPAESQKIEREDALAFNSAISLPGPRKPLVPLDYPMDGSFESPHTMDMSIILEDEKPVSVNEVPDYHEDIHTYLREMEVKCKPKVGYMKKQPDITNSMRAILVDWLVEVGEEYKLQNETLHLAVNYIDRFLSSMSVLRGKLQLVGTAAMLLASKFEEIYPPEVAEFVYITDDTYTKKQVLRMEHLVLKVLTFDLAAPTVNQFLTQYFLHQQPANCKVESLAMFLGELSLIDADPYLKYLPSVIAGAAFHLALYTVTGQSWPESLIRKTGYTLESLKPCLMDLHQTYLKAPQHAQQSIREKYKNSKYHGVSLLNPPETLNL
Chain of STK33 (human) (Q9BYT3 whole entry, looked up): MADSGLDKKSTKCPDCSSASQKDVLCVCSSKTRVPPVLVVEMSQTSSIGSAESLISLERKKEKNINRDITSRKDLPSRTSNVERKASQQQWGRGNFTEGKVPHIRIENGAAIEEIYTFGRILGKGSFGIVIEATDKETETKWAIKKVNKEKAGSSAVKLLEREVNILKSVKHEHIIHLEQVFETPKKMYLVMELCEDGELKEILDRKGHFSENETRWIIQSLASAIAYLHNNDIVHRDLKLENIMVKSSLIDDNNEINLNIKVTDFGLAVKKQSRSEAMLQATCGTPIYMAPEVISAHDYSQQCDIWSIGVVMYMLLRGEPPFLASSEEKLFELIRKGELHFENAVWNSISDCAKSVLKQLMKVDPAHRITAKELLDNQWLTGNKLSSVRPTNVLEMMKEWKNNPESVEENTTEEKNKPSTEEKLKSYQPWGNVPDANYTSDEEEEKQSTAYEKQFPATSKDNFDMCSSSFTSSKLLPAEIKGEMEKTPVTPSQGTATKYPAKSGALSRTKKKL

SMILES: CC(=O)O/N=C1\C(=C2\C(=O)Nc3cc(Br)ccc32)Nc2ccccc21
- residual activity (ERBB4 (human)): 101%
- residual activity (MAPK14 (human)): 99.2%
- residual activity (PRKCH (human)): 95.4%
- residual activity (PBK (human)): 76.8%
- residual activity (LRRK2 (human)): 87.6%
- residual activity (DMPK (human)): 95.4%
- residual activity (CSNK1G2 (human)): 89.7%
- residual activity (PRKD2 (human)): 87.8%
- residual activity (CLK3 (human)): 75.1%
- residual activity (CDK6 CCND1 (human)): 53.2%
- residual activity (PLK2 (human)): 100%
- residual activity (PIM2 (human)): 93.2%
- residual activity (CDK2 CCNA2 (human)): 22.3%
- residual activity (RPS6KA6 KD1 KD2 (human)): 70%
- residual activity (PAK3 (human)): 99.1%
- residual activity (DYRK3 (human)): 91.3%
- residual activity (ROCK1 (human)): 94.6%
- residual activity (ACVR1B (human)): 98.2%
- residual activity (STK25 (human)): 80.9%
- residual activity (CAMK1 (human)): 102%
- residual activity (PRKCB1 (human)): 105%
- residual activity (IRAK1 (human)): 67.4%
- residual activity (RET (human)): 6.58%
- residual activity (GSK3B (human)): 14.3%
- residual activity (MST1R (human)): 92.8%
- residual activity (STK11 (human)): 73.6%
- residual activity (DSTYK (human)): 81.1%
- residual activity (FYN (human)): 20.9%
- residual activity (CDC42BPA (human)): 85.8%
- residual activity (PIM1 (human)): 79.8%
- residual activity (ADRBK1 (human)): 108%
- residual activity (BRSK1 (human)): 43.5%
- residual activity (KIT (human)): 62.3%
- residual activity (MAP3K3 (human)): 97.4%
- residual activity (TGFBR1 (human)): 101%
- residual activity (PRKCZ (human)): 92.2%
- residual activity (NEK2 (human)): 73.9%
- residual activity (NLK (human)): 106%
- residual activity (NEK1 (human)): 94.7%
- residual activity (STK33 (human)): 70.3%
- residual activity (FGFR2 (human)): 85.8%
- residual activity (SGK3 (human)): 100%

SMILES: Cn1nc2c3c(cccc31)C(=O)c1ccccc1-2
- residual activity (ERBB4 (human)): 94.3%
- residual activity (MAPK14 (human)): 93.6%
- residual activity (PRKCH (human)): 94.3%
- residual activity (PBK (human)): 108%
- residual activity (LRRK2 (human)): 55.9%
- residual activity (DMPK (human)): 107%
- residual activity (CSNK1G2 (human)): 91.5%
- residual activity (PRKD2 (human)): 77%
- residual activity (CLK3 (human)): 98.5%
- residual activity (CDK6 CCND1 (human)): 88%
- residual activity (PLK2 (human)): 93.5%
- residual activity (PIM2 (human)): 105%
- residual activity (CDK2 CCNA2 (human)): 105%
- residual activity (RPS6KA6 KD1 KD2 (human)): 90.4%
- residual activity (PAK3 (human)): 101%
- residual activity (DYRK3 (human)): 129%
- residual activity (ROCK1 (human)): 98.4%
- residual activity (ACVR1B (human)): 102%
- residual activity (STK25 (human)): 96.5%
- residual activity (CAMK1 (human)): 104%
- residual activity (PRKCB1 (human)): 94.7%
- residual activity (IRAK1 (human)): 99.6%
- residual activity (RET (human)): 83.8%
- residual activity (GSK3B (human)): 94%
- residual activity (MST1R (human)): 96.7%
- residual activity (STK11 (human)): 87.7%
- residual activity (DSTYK (human)): 101%
- residual activity (FYN (human)): 93.8%
- residual activity (CDC42BPA (human)): 106%
- residual activity (PIM1 (human)): 80.3%
- residual activity (ADRBK1 (human)): 103%
- residual activity (BRSK1 (human)): 92.5%
- residual activity (KIT (human)): 86.4%
- residual activity (MAP3K3 (human)): 94.4%
- residual activity (TGFBR1 (human)): 93.7%
- residual activity (PRKCZ (human)): 97.9%
- residual activity (NEK2 (human)): 88.2%
- residual activity (NLK (human)): 100%
- residual activity (NEK1 (human)): 78.3%
- residual activity (STK33 (human)): 81.3%
- residual activity (FGFR2 (human)): 105%
- residual activity (SGK3 (human)): 107%

SMILES: O=C1Nc2ccccc2/C1=C1\Nc2ccccc2\C1=N/O
- residual activity (ERBB4 (human)): 102%
- residual activity (MAPK14 (human)): 97.2%
- residual activity (PRKCH (human)): 74.4%
- residual activity (PBK (human)): 89.5%
- residual activity (LRRK2 (human)): 91.6%
- residual activity (DMPK (human)): 101%
- residual activity (CSNK1G2 (human)): 89.4%
- residual activity (PRKD2 (human)): 89%
- residual activity (CLK3 (human)): 48.2%
- residual activity (CDK6 CCND1 (human)): 52.8%
- residual activity (PLK2 (human)): 106%
- residual activity (PIM2 (human)): 106%
- residual activity (CDK2 CCNA2 (human)): 29.6%
- residual activity (RPS6KA6 KD1 KD2 (human)): 52.2%
- residual activity (PAK3 (human)): 92.6%
- residual activity (DYRK3 (human)): 106%
- residual activity (ROCK1 (human)): 101%
- residual activity (ACVR1B (human)): 102%
- residual activity (STK25 (human)): 87.5%
- residual activity (CAMK1 (human)): 83.7%
- residual activity (PRKCB1 (human)): 94.7%
- residual activity (IRAK1 (human)): 68.8%
- residual activity (RET (human)): 8.05%
- residual activity (GSK3B (human)): 27.3%
- residual activity (MST1R (human)): 103%
- residual activity (STK11 (human)): 25.6%
- residual activity (DSTYK (human)): 108%
- residual activity (FYN (human)): 43.3%
- residual activity (CDC42BPA (human)): 93.7%
- residual activity (PIM1 (human)): 85.2%
- residual activity (ADRBK1 (human)): 89.5%
- residual activity (BRSK1 (human)): 23.4%
- residual activity (KIT (human)): 73.2%
- residual activity (MAP3K3 (human)): 94.4%
- residual activity (TGFBR1 (human)): 98.9%
- residual activity (PRKCZ (human)): 95.2%
- residual activity (NEK2 (human)): 109%
- residual activity (NLK (human)): 94.6%
- residual activity (NEK1 (human)): 96.9%
- residual activity (STK33 (human)): 44.1%
- residual activity (FGFR2 (human)): 92.1%
- residual activity (SGK3 (human)): 102%

Reference: the kinase profiling compilation of Christmann-Franck et al. (2016)
